Tests used:
Safety pharmacology test = details: in vivo
Procedure: Protocol No. NB_KDS_ADP1_21 Confidential administration of the test substance to rats at a dose of 50-200 mg/kg daily for 2 weeks, there were no deaths.
As a result of oral administration to rats at doses of 30, 50, 75 and 100 mg/kg once daily for 4 weeks, […]
testis, epididymis and lungs. Renal epithelial hyperplasia and inflammatory cells infiltration in the renal pelvis observed in the male and female dose groups of 75 mg/kg or more, germ cell degeneration/loss and seminiferous tubules atrophy observed in the male dose groups of 75 mg/kg or more, and vacuole/degeneration of outer medullary tubules and basophilic tubules observed in the female dose groups were judged to be adverse effects due to administration of the test substance. […] Accordingly, in repeated administrations of rats for 4 weeks, the NOAEL(No Observed Adverse Effect Level) was determined to be 50 mg/kg/day for males and 30 mg/kg for females. […]
In a pharmacokinetic study, plasma PK parameters were measured after a single oral administration of […]
a result of measuring excretion into urine, feces, expiration, and bile, 6.9% was excreted in urine and 48.5% in feces, respectively, up to 168 hours after administration. Excretion to air through respiration was about 0.0% until 48 hours after administration, and 44.1% of the administered radioactivity concentration was present in the body (carcass). […]

[1] = cynomolgus monkey, in vivo, po
[2] = Body weight of rats on medicated drinking water; format: in vivo, rat
Procedure: (S)-2-(((4’-Trifluoromethylbiphenyl-4-yl)methyl)amino)propanamide methane-sulfonate (KDS2010) was dissolved in distilled water. For SD rats, KDS2010 was administered via the drinking water ad libitum. […] To evaluate dose-dependent effects, additional groups received 20 mg/kg/day or 30 mg/kg/day starting at PI 2 weeks. To achieve consistent exposure across animals, we meticulously monitored the daily water intake and body weight of each rat throughout the study. As shown in the Extended Data (Supplementary Table 1), water consumption was calculated weekly via a formula based on body weight (e.g., d.w = weight × 0.09 at week 0; gradually tapering to weight × 0.075 by weeks 8–9). Importantly, all animals were confirmed to have consumed the entirety of the provided medicated water each day, ensuring full ingestion of the intended dose (10 mg/kg/day for the majority of groups, and 20/30 mg/kg/day for the dose-dependent experiments).

in vivo = details: Sprague-Dawley, rat

Compound: CS(=O)(=O)O.C[C@H](NCc1ccc(-c2ccc(C(F)(F)F)cc2)cc1)C(N)=O [KDS2010, (S)-2-(((4’-Trifluoromethylbiphenyl-4-yl)methyl)amino)propanamide methane-sulfonate]
- effects on central nervous system, respiratory system, and cardiovascular system (Safety pharmacology test): no effect
- approximate lethal dose [1]: ≥ 100 mg/kg
- Weekly change in body weight ([2]; SCI/KDS 2w 20mpk, 0w): 0.00 g
- Weekly change in body weight ([2]; SCI/KDS 2w 20mpk, 1w): 29.33 g
- Weekly change in body weight ([2]; SCI/KDS 2w 20mpk, 2w): 13.61 g
- Weekly change in body weight ([2]; SCI/KDS 2w 20mpk, 3w): 54.00 g
- Weekly change in body weight ([2]; SCI/KDS 2w 20mpk, 4s): 16.28 g
- Weekly change in body weight ([2]; SCI/KDS 2w 20mpk, 5s): 31.61 g
- Weekly change in body weight ([2]; SCI/KDS 2w 20mpk, 6s): 12.56 g
- Weekly change in body weight ([2]; SCI/KDS 2w 20mpk, 7w): 24.17 g
- Weekly change in body weight ([2]; SCI/KDS 2w 20mpk, 8w): 13.00 g
- Weekly change in body weight ([2]; SCI/KDS 2w 20mpk, 9w): 10.89 g
- Weekly change in body weight ([2]; SCI/KDS 2w 30mpk, 0w): 0.00 g
- Weekly change in body weight ([2]; SCI/KDS 2w 30mpk, 1w): 34.43 g
- Weekly change in body weight ([2]; SCI/KDS 2w 30mpk, 2w): 10.86 g
- Weekly change in body weight ([2]; SCI/KDS 2w 30mpk, 3w): 39.90 g
- Weekly change in body weight ([2]; SCI/KDS 2w 30mpk, 4s): 17.36 g
- Weekly change in body weight ([2]; SCI/KDS 2w 30mpk, 5s): 22.40 g
- Weekly change in body weight ([2]; SCI/KDS 2w 30mpk, 6s): 10.84 g
- Weekly change in body weight ([2]; SCI/KDS 2w 30mpk, 7w): 19.91 g
- Weekly change in body weight ([2]; SCI/KDS 2w 30mpk, 8w): 17.56 g
- Weekly change in body weight ([2]; SCI/KDS 2w 30mpk, 9w): 3.43 g
- Weekly change in body weight ([2]; SCI/KDS 2w, 0w): 0.00 g
- Weekly change in body weight ([2]; SCI/KDS 2w, 1w): 47.67 g
- Weekly change in body weight ([2]; SCI/KDS 2w, 2w): 16.00 g
- Weekly change in body weight ([2]; SCI/KDS 2w, 3w): 33.67 g
- Weekly change in body weight ([2]; SCI/KDS 2w, 4s): 31.00 g
- Weekly change in body weight ([2]; SCI/KDS 2w, 5s): 31.33 g
- Weekly change in body weight ([2]; SCI/KDS 2w, 6s): 16.67 g
- Weekly change in body weight ([2]; SCI/KDS 2w, 7w): 18.33 g
- Weekly change in body weight ([2]; SCI/KDS 2w, 8w): 11.67 g
- Weekly change in body weight ([2]; SCI/KDS 2w, 9w): 7.17 g
- Weekly change in body weight ([2]; SCI/KDS 2w, 10w): 14.50 g
- Weekly change in body weight ([2]; SCI/KDS 2w, 11w): 8.00 g
- Weekly change in body weight ([2]; SCI/KDS 2w, 12w): 1.50 g
- Weekly change in body weight ([2]; SCI/KDS 2w, 13w): 7.50 g
- Weekly change in body weight ([2]; SCI/KDS 6w, 0w): 0.00 g
- Weekly change in body weight ([2]; SCI/KDS 6w, 1w): 24.00 g
- Weekly change in body weight ([2]; SCI/KDS 6w, 2w): 27.50 g
- Weekly change in body weight ([2]; SCI/KDS 6w, 3w): 36.00 g
- Weekly change in body weight ([2]; SCI/KDS 6w, 4s): 31.50 g
- Weekly change in body weight ([2]; SCI/KDS 6w, 5s): 14.50 g
- Weekly change in body weight ([2]; SCI/KDS 6w, 6s): 13.00 g
- Weekly change in body weight ([2]; SCI/KDS 6w, 7w): 17.50 g
- Weekly change in body weight ([2]; SCI/KDS 6w, 8w): 7.00 g
- Weekly change in body weight ([2]; SCI/KDS 6w, 9w): 13.00 g
- Weekly change in body weight ([2]; SCI/KDS 6w, 10w): 11.00 g
- Weekly change in body weight ([2]; SCI/KDS 6w, 11w): 8.00 g
- Weekly change in body weight ([2]; SCI/KDS 6w, 12w): 7.00 g
- Weekly change in body weight ([2]; SCI/KDS 6w, 13w): 8.00 g
- Weekly change in body weight ([2]; SCI/KDS 1d, 0w): 0.00 g
- Weekly change in body weight ([2]; SCI/KDS 1d, 1w): -44.55 g
- Weekly change in body weight ([2]; SCI/KDS 1d, 2w): 21.82 g
- Weekly change in body weight ([2]; SCI/KDS 1d, 3w): 23.03 g
- Weekly change in body weight ([2]; SCI/KDS 1d, 4s): 50.91 g
- Weekly change in body weight ([2]; SCI/KDS 1d, 5s): 28.03 g
- Weekly change in body weight ([2]; SCI/KDS 1d, 6s): 16.82 g
- Weekly change in body weight ([2]; SCI/KDS 1d, 7w): 19.85 g
- Weekly change in body weight ([2]; SCI/KDS 1d, 8w): 14.70 g
- Weekly change in body weight ([2]; SCI/KDS 1d, 9w): 7.88 g
- Weekly change in body weight ([2]; Sham/KDS 2w, 0w): 0.00 g
- Weekly change in body weight ([2]; Sham/KDS 2w, 1w): 33.00 g
- Weekly change in body weight ([2]; Sham/KDS 2w, 2w): 17.00 g
- Weekly change in body weight ([2]; Sham/KDS 2w, 3w): 32.00 g
- Weekly change in body weight ([2]; Sham/KDS 2w, 4s): 31.00 g
- Weekly change in body weight ([2]; Sham/KDS 2w, 5s): 21.00 g
- Weekly change in body weight ([2]; Sham/KDS 2w, 6s): 8.00 g
- Weekly change in body weight ([2]; Sham/KDS 2w, 7w): 25.00 g
- Weekly change in body weight ([2]; Sham/KDS 2w, 8w): 10.00 g
- Weekly change in body weight ([2]; Sham/KDS 2w, 9w): 10.00 g
- Weekly change in body weight ([2]; Sham/KDS 1d, 0w): 0.00 g
- Weekly change in body weight ([2]; Sham/KDS 1d, 1w): 26.67 g
- Weekly change in body weight ([2]; Sham/KDS 1d, 2w): 3.33 g
- Weekly change in body weight ([2]; Sham/KDS 1d, 3w): 30.00 g
- Weekly change in body weight ([2]; Sham/KDS 1d, 4s): 50.00 g
- Weekly change in body weight ([2]; Sham/KDS 1d, 5s): 25.00 g
- Weekly change in body weight ([2]; Sham/KDS 1d, 6s): 21.67 g
- Weekly change in body weight ([2]; Sham/KDS 1d, 7w): 18.33 g
- Weekly change in body weight ([2]; Sham/KDS 1d, 8w): 8.33 g
- Weekly change in body weight ([2]; Sham/KDS 1d, 9w): 23.33 g
- MTD (in vivo; po): 700 mg/kg
- NOAEL at 4 weeks (in vivo; female, NOAEL): 30 mg/kg
- NOAEL at 4 weeks (in vivo; female, human equivalent dose (HED) of NOAEL): 4.84 mg/kg
- NOAEL at 4 weeks (in vivo; male, NOAEL): 50 mg/kg/day
